These molecules were tested against T1, Cdc7 (BEV coexpressed huCDC7/DBF4) (Homo sapiens, UniProt O00311) (assay: Cdc7 enzyme inhibition assay ([33P]ATP, biotinylated peptide substrate, FlashPlate)). Details: Table 2; Comparative Example lacking the chloro substituent versus the chloro Example.
T1 construct: made in house; host or cells: BEV (baculovirus expression vector) co-expression; insect cells are implied but no cell line is named
Format: biochemical
Procedure: Cdc7 (BEV coexpressed huCDC7/DBF4) is prepared internally. Cdc7 assays are conducted as follows with final concentrations as listed. […] Reactions are quenched after 1 hr by the addition of 90 μL stop buffer (50 mM EDTA, 2M NaCl). […] (Ki) for exemplary compounds.

T1 sequence (O00311 whole entry): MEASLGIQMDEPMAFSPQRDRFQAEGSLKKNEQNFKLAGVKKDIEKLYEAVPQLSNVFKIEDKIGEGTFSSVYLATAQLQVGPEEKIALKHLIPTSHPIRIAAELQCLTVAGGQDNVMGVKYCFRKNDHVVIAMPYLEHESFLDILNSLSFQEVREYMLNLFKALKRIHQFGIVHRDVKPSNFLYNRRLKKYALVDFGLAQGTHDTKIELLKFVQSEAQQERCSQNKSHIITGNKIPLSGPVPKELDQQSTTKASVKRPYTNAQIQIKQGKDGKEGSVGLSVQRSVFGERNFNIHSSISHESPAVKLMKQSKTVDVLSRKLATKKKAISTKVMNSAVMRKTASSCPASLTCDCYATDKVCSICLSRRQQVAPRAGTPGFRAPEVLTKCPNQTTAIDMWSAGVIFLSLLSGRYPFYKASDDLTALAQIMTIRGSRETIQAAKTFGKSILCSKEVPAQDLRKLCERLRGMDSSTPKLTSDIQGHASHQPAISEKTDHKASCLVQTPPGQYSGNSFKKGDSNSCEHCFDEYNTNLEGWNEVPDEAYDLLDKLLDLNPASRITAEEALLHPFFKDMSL
T1 sequence (Q9UBU7 whole entry partner): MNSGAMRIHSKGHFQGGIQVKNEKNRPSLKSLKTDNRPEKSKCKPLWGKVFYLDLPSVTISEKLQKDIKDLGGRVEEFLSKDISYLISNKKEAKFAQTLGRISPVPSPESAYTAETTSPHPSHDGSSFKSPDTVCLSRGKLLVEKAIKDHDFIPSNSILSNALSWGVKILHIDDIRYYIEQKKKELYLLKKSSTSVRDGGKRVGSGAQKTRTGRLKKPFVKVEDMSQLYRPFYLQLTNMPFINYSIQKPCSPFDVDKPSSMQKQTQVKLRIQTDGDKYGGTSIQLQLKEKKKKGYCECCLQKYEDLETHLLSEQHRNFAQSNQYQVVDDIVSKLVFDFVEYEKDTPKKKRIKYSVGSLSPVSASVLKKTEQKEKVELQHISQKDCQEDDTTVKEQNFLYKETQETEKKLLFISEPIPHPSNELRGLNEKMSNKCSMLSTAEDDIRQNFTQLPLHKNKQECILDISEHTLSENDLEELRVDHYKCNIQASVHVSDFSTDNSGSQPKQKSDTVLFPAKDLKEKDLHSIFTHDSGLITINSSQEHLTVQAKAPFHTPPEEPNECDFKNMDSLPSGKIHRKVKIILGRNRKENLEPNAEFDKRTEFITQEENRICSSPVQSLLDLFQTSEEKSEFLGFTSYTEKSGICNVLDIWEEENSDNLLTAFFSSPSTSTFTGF

Row | Compound | Ki ratio comparisons (Ki Comparative Example/Ki Example)
1 | c1cnc2[nH]cc(-c3ccnc(NC4CCCCC4)c3)c2c1 [Comparative Example 1, N-cyclohexyl-4-(1H-pyrrolo[2,3-b]pyridin-3-yl)pyridin-2-amine, reference compound] | 10
2 | Cc1cc(-c2c[nH]c3ncccc23)cc(NC2CCCCC2)n1 [Comparative Example 2, N-cyclohexyl-6-methyl-4-(1H-pyrrolo[2,3-b]pyridin-3-yl)pyridin-2-amine, reference compound] | 14
3 | Cc1cc(-c2c[nH]c3ncccc23)cc(NCc2ccccc2)n1 [Comparative Example 3, N-benzyl-6-methyl-4-(1H-pyrrolo[2,3-b]pyridin-3-yl)pyridin-2-amine, reference compound] | 75
4 | Cc1cc(-c2c[nH]c3ncccc23)cc(N[C@H]2CC[C@H](O)CC2)n1 [Comparative Example 4, Trans-4-{[6-methyl-4-(1H-pyrrolo[2,3-b]pyridin-3-yl)pyridin-2-yl]amino}cyclohexanol, reference compound] | 54
5 | N#Cc1cc(-c2c[nH]c3ncccc23)cc(NC2CCCCC2)n1 [Comparative Example 5, 6-(cyclohexylamino)-4-(1H-pyrrolo[2,3-b]pyridin-3-yl)pyridine-2-carbonitrile, reference compound] | 9
6 | N#Cc1cc(-c2c[nH]c3ncccc23)cc(NCc2ccccc2)n1 [Comparative Example 6, 6-(benzylamino)-4-(1H-pyrrolo[2,3-b]pyridin-3-yl)pyridine-2-carbonitrile, reference compound] | 5
7 | NC(=O)c1cc(-c2c[nH]c3ncccc23)cc(NCc2ccccc2)n1 [Comparative Example 7, 6-(benzylamino)-4-(1H-pyrrolo[2,3-b]pyridin-3-yl)pyridine-2-carboxamide, reference compound] | 45
8 | N#Cc1cc(-c2c[nH]c3ncccc23)cc(N2CCCCC2)n1 [Comparative Example 8, 6-piperidin-1-yl-4-(1H-pyrrolo[2,3-b]pyridin-3-yl)pyridine-2-carbonitrile, reference compound] | 2
9 | NC(=O)c1cc(-c2c[nH]c3ncccc23)cc(N2CCCCC2)n1 [Comparative Example 9, 6-piperidin-1-yl-4-(1H-pyrrolo[2,3-b]pyridin-3-yl)pyridine-2-carboxamide, reference compound] | 84

Same assay, conditions: Table 3; enzyme inhibition data (Ki)

Row | Ki [nM] | Compound
10 | < 10 | CS(=O)(=O)N[C@@H]1CCCC[C@@H]1Nc1cc(-c2c[nH]c3ncccc23)cc(Cl)n1 (relative stereo) [Example 132, N-[(cis)-2-{[6-chloro-4-(1H-pyrrolo[2,3-b]pyridin-3-yl)pyridin-2-yl]amino}cyclohexyl]methanesulfonamide]
11 | < 10 | CCN1CCC1C(=O)N[C@H]1CC[C@H](Nc2cc(-c3c[nH]c4ncccc34)cc(Cl)n2)CC1 (relative stereo) [Example 134, N-(trans-4-{[6-chloro-4-(1H-pyrrolo[2,3-b]pyridin-3-yl)pyridin-2-yl]amino}cyclohexyl)-1-ethylazetidine-2-carboxamide]
12 | < 10 | O=C(N[C@H]1CC[C@H](Nc2cc(-c3c[nH]c4ncccc34)cc(Cl)n2)CC1)C1CCN1C1CCCC1 (relative stereo) [Example 136, N-(trans-4-{[6-chloro-4-(1H-pyrrolo[2,3-b]pyridin-3-yl)pyridin-2-yl]amino}cyclohexyl)-1-cyclopentylazetidine-2-carboxamide]
13 | < 10 | CN(C)[C@@H]1CCCC[C@@H]1Nc1cc(-c2c[nH]c3ncccc23)cc(Cl)n1 (relative stereo) [Example 140, (cis)-N′-[6-chloro-4-(1H-pyrrolo[2,3-b]pyridin-3-yl)pyridin-2-yl]-N,N-dimethylcyclohexane-1,2-diamine]
14 | < 10 | O=S(=O)(N[C@H]1CC[C@H](Nc2cc(-c3c[nH]c4ncccc34)cc(Cl)n2)CC1)C1CCNC1 (relative stereo) [Example 151, N-(trans-4-{[6-chloro-4-(1H-pyrrolo[2,3-b]pyridin-3-yl)pyridin-2-yl]amino}cyclohexyl)pyrrolidine-3-sulfonamide]
15 | < 10 | NC1CCC(N[C@H]2CC[C@H](Nc3cc(-c4c[nH]c5ncccc45)cc(Cl)n3)CC2)CC1 (relative stereo) [Example 158, trans-N-(4-aminocyclohexyl)-N′-[6-chloro-4-(1H-pyrrolo[2,3-b]pyridin-3-yl)pyridin-2-yl]cyclohexane-1,4-diamine]
16 | < 10 | CCN1CCC(C(=O)N[C@H]2CC[C@H](Nc3cc(-c4c[nH]c5ncc(OC)cc45)cc(Cl)n3)CC2)C1 (relative stereo) [Example 219, N-(trans-4-{[6-chloro-4-(5-methoxy-1H-pyrrolo[2,3-b]pyridin-3-yl)pyridin-2-yl]amino}cyclohexyl)-1-ethylpyrrolidine-3-carboxamide]
17 | < 10 | CCN1CCC(C(=O)N[C@H]2CC[C@H](Nc3cc(-c4c[nH]c5ncccc45)cc(Cl)n3)CC2)C1 (relative stereo) [Example 326, N-(trans-4-{[6-chloro-4-(1H-pyrrolo[2,3-b]pyridin-3-yl)pyridin-2-yl]amino}cyclohexyl)-1-ethylpyrrolidine-3-carboxamide]
18 | < 10 | CN1CCC[C@H]1C(=O)N[C@H]1CC[C@H](Nc2cc(-c3c[nH]c4ncccc34)cc(Cl)n2)CC1 (relative stereo) [Example 336, N-(trans-4-{[6-chloro-4-(1H-pyrrolo[2,3-b]pyridin-3-yl)pyridin-2-yl]amino}cyclohexyl)-1-methylprolinamide]
19 | < 10 | CN1CCCCC1C(=O)N[C@H]1CC[C@H](Nc2cc(-c3c[nH]c4ncccc34)cc(Cl)n2)CC1 (relative stereo) [Example 337, N-(trans-4-{[6-chloro-4-(1H-pyrrolo[2,3-b]pyridin-3-yl)pyridin-2-yl]amino}cyclohexyl)-1-methylpiperidine-2-carboxamide]
20 | < 10 | CN1C(=O)CC[C@H]1C(=O)N[C@H]1CC[C@H](Nc2cc(-c3c[nH]c4ncccc34)cc(Cl)n2)CC1 (relative stereo) [Example 342, N-(trans-4-{[6-chloro-4-(1H-pyrrolo[2,3-b]pyridin-3-yl)pyridin-2-yl]amino}cyclohexyl)-1-methyl-5-oxoprolinamide]
21 | < 10 | CC1CCC(NCC(=O)N[C@H]2CC[C@H](Nc3cc(-c4c[nH]c5ncccc45)cc(Cl)n3)CC2)CC1 (relative stereo) [Example 354, N-(trans-4-{[6-chloro-4-(1H-pyrrolo[2,3-b]pyridin-3-yl)pyridin-2-yl]amino}cyclohexyl)-N~2~-(4-methylcyclohexyl)glycinamide]
22 | < 10 | O=C(NC1CCC(N[C@H]2CC[C@H](Nc3cc(-c4c[nH]c5ncccc45)cc(Cl)n3)CC2)CC1)OCc1ccccc1 (relative stereo) [Example 363, benzyl {4-[(trans-4-{[6-chloro-4-(1H-pyrrolo[2,3-b]pyridin-3-yl)pyridin-2-yl]amino}cyclohexyl)amino]cyclohexyl}carbamate]
23 | < 10 | CC(=O)NC1CCC(N(C(C)=O)[C@H]2CC[C@H](Nc3cc(-c4c[nH]c5ncccc45)cc(Cl)n3)CC2)CC1 (relative stereo) [Example 365, N-[4-(acetylamino)cyclohexyl]-N-(trans-4-{[6-chloro-4-(1H-pyrrolo[2,3-b]pyridin-3-yl)pyridin-2-yl]amino}cyclohexyl)acetamide]
24 | < 10 | CC(c1ccccc1)N1CC(C(=O)N[C@H]2CC[C@H](Nc3cc(-c4c[nH]c5ncccc45)cc(Cl)n3)CC2)C1 (relative stereo) [Example 396, N-(trans-4-{[6-chloro-4-(1H-pyrrolo[2,3-b]pyridin-3-yl)pyridin-2-yl]amino}cyclohexyl)-1-(1-phenylethyl)azetidine-3-carboxamide]
25 | < 10 | CCN1CCC(C(=O)N[C@H]2CC[C@H](Nc3nc(Cl)cc(-c4c[nH]c5ncccc45)n3)CC2)C1 (relative stereo) [Example 462, N-(trans-4-{[4-chloro-6-(1H-pyrrolo[2,3-b]pyridin-3-yl)pyrimidin-2-yl]amino}cyclohexyl)-1-ethylpyrrolidine-3-carboxamide]

Continued, molecule first:

Row | Compound | Ki [nM]
26 | CS(=O)(=O)N[C@@H]1CCCC[C@H]1Nc1cc(-c2c[nH]c3ncccc23)cc(Cl)n1 (relative stereo) [Example 110, N-[(trans)-2-{[6-chloro-4-(1H-pyrrolo[2,3-b]pyridin-3-yl)pyridin-2-yl]amino}cyclohexyl]methanesulfonamide] | < 10
27 | O=C(N[C@@H]1CCCC[C@H]1Nc1cc(-c2c[nH]c3ncccc23)cc(Cl)n1)C1CCN1 (relative stereo) [Example 120, N-[(trans)-2-{[6-chloro-4-(1H-pyrrolo[2,3-b]pyridin-3-yl)pyridin-2-yl]amino}cyclohexyl]azetidine-2-carboxamide] | < 10
28 | CN1CCC(C(=O)N[C@H]2CC[C@H](Nc3cc(-c4c[nH]c5ncccc45)cc(Cl)n3)CC2)C1 (relative stereo) [Example 125, N-(trans-4-{[6-chloro-4-(1H-pyrrolo[2,3-b]pyridin-3-yl)pyridin-2-yl]amino}cyclohexyl)-1-methylpyrrolidine-3-carboxamide] | < 10
29 | N[C@H]1CCCC[C@H]1Nc1cc(-c2c[nH]c3ncccc23)cc(Cl)n1 (relative stereo) [Example 131, (cis)-N-[6-chloro-4-(1H-pyrrolo[2,3-b]pyridin-3-yl)pyridin-2-yl]cyclohexane-1,2-diamine] | < 10
30 | O=C(CNC1CN2CCC1CC2)N[C@H]1CC[C@H](Nc2cc(-c3c[nH]c4ncccc34)cc(Cl)n2)CC1 (relative stereo) [Example 351, N~2~-1-azabicyclo[2.2.2]oct-3-yl-N-(trans-4-{[6-chloro-4-(1H-pyrrolo[2,3-b]pyridin-3-yl)pyridin-2-yl]amino}cyclohexyl)glycinamide] | < 10

Reference: patent publication US8435980B2 (AbbVie Inc., priority 2009, dated 2013)
